Laboratory results taken from patent US7700610B2, “Use of tyrosine kinase inhibitors for treating allergic diseases” (AB Science, priority 2001, dated 2010).

Columns and labels:
[1] = tested on: dog afflicted with severe atopic dermatitis; settings: 3 year old dog with severe atopic dermatitis, 3 mg/kg/d together with cefalexine and ketoconazole
dog cutaneous mast cells = settings: in vitro, Garcia and DeMora, Am J Vet Res 1997; cited from earlier work

Row | Compound | superficial pyodermatitis and generalized Malassezia dermatitis following treatment (FIG. 3) [1] | inhibition of histamine release (dog cutaneous mast cells) | prodegranulating effect (dog cutaneous mast cells)
1 | Cc1ccc(NC(=O)c2ccc(CN3CCN(C)CC3)cc2)cc1Nc1nccc(-c2cccnc2)n1 [4-(4-méthylpipérazine-1-ylméthyl)-N-[4-méthyl-3-[(4-pyridine-3-yl-)pyrimidine-2Yl)amino-)]phényl]-benzamide] | resolution of the superficial pyodermatitis and generalized Malassezia dermatitis |  | 
2 | CCOC(=O)N1CCC(=C2c3ccc(Cl)cc3CCc3cccnc32)CC1 [loratadine] |  | potent inhibition | without a substantial prodegranulating effect
